Laboratory results: patent US20230123334A1, “AMINO LIPID COMPOUND, PREPARATION METHOD THEREFOR, AND APPLICATION THEREOF” (SHENZHEN SHENXIN BIOTECHNOLOGY CO., LTD., priority 2020, published 2023)

How the values were obtained:
[1] = tested on: HEK293 cells; test: Preliminary screening as mRNA vectors, EGFP mRNA transfection of HEK293 cells; type: cell-based; conditions: HEK293 cells, 96-well plates, EGFP mRNA 50 ng per well; percentage of GFP fluorescent cells relative to total number of cells (Hoechst)
How it was run: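 HEK293 cells in DMEM plus 10% FBS transfected in 96-well format with 50 ng EGFP mRNA per well; Lipofectamine2000 served as positive control. Read-out is the percentage of GFP-fluorescent cells among total cells, counted by Hoechst nuclear stain.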

[2] = tested on: HEK293 cells; test: Preliminary screening as DNA vectors, GFP transfection of HEK293 cells; type: cell-based; conditions: HEK293 cells; lipid/DOPE liposome with 75 ng plasmid DNA (psin-EGFP-IRES-Puro); number of cells expressing GFP divided by total number of nuclei (Hoechst)
How it was run: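 HEK293 cells in DMEM/10% FBS transfected with 75 ng EGFP plasmid per well complexed with amino lipid/DOPE liposomes in pH 5.6 sodium acetate. Hoechst nuclear stain added 20-24 h post-transfection, then cells cultured another 20-24 h. Confocal imaging gives GFP-positive cells as % of total nuclei.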

| Compound | Absolute mRNA transfection efficiency in HEK293 cells [1] | Absolute DNA transfection efficiency in HEK293 cells [2] |
| --- | --- | --- |
| CCCCCCCCCCCCCCCCCCSc1nc(NCCN2CCN(C)CC2)nc(SCCCCCCCCCCC)n1 [Compound S11S18D5] | 3.8% | 1.7% |
| CCCCCCCCCCCCCCCCCCSc1nc(NCCCN(C)C)nc(SCCCCCCCCCCC)n1 [Compound S11S18D6] | 6.0% | 3.6% |
| CCCCCCCCCCCCCCCCCCSc1nc(NCCN(CC)CC)nc(SCCCCCCCCCCC)n1 [Compound S11S18D7] | 1.1% | 3.6% |
| CCCCCCCCCCCCCCCCCCSc1nc(NCCCN2CCOCC2)nc(SCCCCCCCCCCC)n1 [Compound S11S18D8] | 3.3% | 7.8% |
| CCCCCCCCCCCCCCCCCCSc1nc(NCCCN2CCN(C)CC2)nc(SCCCCCCCCCCC)n1 [Compound S11S18D9] | 0.3% | 0.9% |
| CCCCCCCCCCCCCCCCCCSc1nc(NCC2CCN(C)CC2)nc(SCCCCCCCCCCC)n1 [Compound S11S18D10] | 92.0% | 20.9% |
| CCCCCCCCCCCCSc1nc(NCCN(C)C)nc(SCCCCCCCCCCCC)n1 [Compound S12S12D1] | 0.6% | 0.5% |
| CCCCCCCCCCCCSc1nc(NCCN2CCOCC2)nc(SCCCCCCCCCCCC)n1 [Compound S12S12D2] | 0.0% | 0.1% |
| CCCCCCCCCCCCSc1nc(NCCN2CCCC2)nc(SCCCCCCCCCCCC)n1 [Compound S12S12D3] | 11.0% | 2.1% |
| CCCCCCCCCCCCSc1nc(NCCN2CCCCC2)nc(SCCCCCCCCCCCC)n1 [Compound S12S12D4] | 36.3% | 4.1% |
| CCCCCCCCCCCCSc1nc(NCCN2CCN(C)CC2)nc(SCCCCCCCCCCCC)n1 [Compound S12S12D5] | 3.1% | 0.4% |
| CCCCCCCCCCCCSc1nc(NCCCN(C)C)nc(SCCCCCCCCCCCC)n1 [Compound S12S12D6] | 2.6% | 3.9% |
| CCCCCCCCCCCCSc1nc(NCCN(CC)CC)nc(SCCCCCCCCCCCC)n1 [Compound S12S12D7] | 1.3% | 3.3% |
| CCCCCCCCCCCCSc1nc(NCCCN2CCOCC2)nc(SCCCCCCCCCCCC)n1 [Compound S12S12D8] | 3.8% | 3.4% |
| CCCCCCCCCCCCSc1nc(NCCCN2CCN(C)CC2)nc(SCCCCCCCCCCCC)n1 [Compound S12S12D9] | 1.3% | 1.9% |
| CCCCCCCCCCCCSc1nc(NCC2CCN(C)CC2)nc(SCCCCCCCCCCCC)n1 [Compound S12S12D10] | 12.8% | 2.7% |
| CCCCCCCCCCCCCCSc1nc(NCCN(C)C)nc(SCCCCCCCCCCCC)n1 [Compound S12S14D1] | 0.0% | 0.6% |
| CCCCCCCCCCCCCCSc1nc(NCCN2CCOCC2)nc(SCCCCCCCCCCCC)n1 [Compound S12S14D2] | 0.2% | 0.1% |
| CCCCCCCCCCCCCCSc1nc(NCCN2CCCC2)nc(SCCCCCCCCCCCC)n1 [Compound S12S14D3] | 6.3% | 6.5% |
| CCCCCCCCCCCCCCSc1nc(NCCN2CCCCC2)nc(SCCCCCCCCCCCC)n1 [Compound S12S14D4] | 14.0% | 6.7% |
| CCCCCCCCCCCCCCSc1nc(NCCN2CCN(C)CC2)nc(SCCCCCCCCCCCC)n1 [Compound S12S14D5] | 3.6% | 0.2% |

| Compound | Absolute mRNA transfection efficiency in HEK293 cells [1] | Absolute DNA transfection efficiency in HEK293 cells [2] |
| --- | --- | --- |
| CCCCCCCCCCCCCCSc1nc(NCCCN(C)C)nc(SCCCCCCCCCCCC)n1 [Compound S12S14D6] | 4.6% | 4.0% |
| CCCCCCCCCCCCCCSc1nc(NCCN(CC)CC)nc(SCCCCCCCCCCCC)n1 [Compound S12S14D7] | 0.9% | 3.3% |
| CCCCCCCCCCCCCCSc1nc(NCCCN2CCOCC2)nc(SCCCCCCCCCCCC)n1 [Compound S12S14D8] | 1.3% | 3.7% |
| CCCCCCCCCCCCCCSc1nc(NCCCN2CCN(C)CC2)nc(SCCCCCCCCCCCC)n1 [Compound S12S14D9] | 2.5% | 0.8% |
| CCCCCCCCCCCCCCSc1nc(NCC2CCN(C)CC2)nc(SCCCCCCCCCCCC)n1 [Compound S12S14D10] | 30.4% | 6.5% |
| CCCCCCCCCCCCCCCSc1nc(NCCN(C)C)nc(SCCCCCCCCCCCC)n1 [Compound S12S15D1] | 4.1% | 0.8% |
| CCCCCCCCCCCCCCCSc1nc(NCCN2CCOCC2)nc(SCCCCCCCCCCCC)n1 [Compound S12S15D2] | 0.0% | 0.5% |
| CCCCCCCCCCCCCCCSc1nc(NCCN2CCCC2)nc(SCCCCCCCCCCCC)n1 [Compound S12S15D3] | 9.7% | 2.9% |
| CCCCCCCCCCCCCCCSc1nc(NCCN2CCCCC2)nc(SCCCCCCCCCCCC)n1 [Compound S12S15D4] | 3.3% | 3.8% |
| CCCCCCCCCCCCCCCSc1nc(NCCN2CCN(C)CC2)nc(SCCCCCCCCCCCC)n1 [Compound S12S15D5] | 1.4% | 0.1% |
| CCCCCCCCCCCCCCCSc1nc(NCCCN(C)C)nc(SCCCCCCCCCCCC)n1 [Compound S12S15D6] | 0.0% | 4.4% |
| CCCCCCCCCCCCCCCSc1nc(NCCN(CC)CC)nc(SCCCCCCCCCCCC)n1 [Compound S12S15D7] | 0.0% | 1.4% |
| CCCCCCCCCCCCCCCSc1nc(NCCCN2CCOCC2)nc(SCCCCCCCCCCCC)n1 [Compound S12S15D8] | 3.2% | 3.1% |
| CCCCCCCCCCCCCCCSc1nc(NCCCN2CCN(C)CC2)nc(SCCCCCCCCCCCC)n1 [Compound S12S15D9] | 0.9% | 2.0% |
| CCCCCCCCCCCCCCCSc1nc(NCC2CCN(C)CC2)nc(SCCCCCCCCCCCC)n1 [Compound S12S15D10] | 43.1% | 9.9% |
| CCCCCCCCCCCCCCCCSc1nc(NCCN(C)C)nc(SCCCCCCCCCCCC)n1 [Compound S12S16D1] | 0.0% | 0.6% |
| CCCCCCCCCCCCCCCCSc1nc(NCCN2CCOCC2)nc(SCCCCCCCCCCCC)n1 [Compound S12S16D2] | 0.0% | 0.0% |
| CCCCCCCCCCCCCCCCSc1nc(NCCN2CCCC2)nc(SCCCCCCCCCCCC)n1 [Compound S12S16D3] | 0.1% | 2.0% |
| CCCCCCCCCCCCCCCCSc1nc(NCCN2CCCCC2)nc(SCCCCCCCCCCCC)n1 [Compound S12S16D4] | 6.3% | 3.3% |
| CCCCCCCCCCCCCCCCSc1nc(NCCN2CCN(C)CC2)nc(SCCCCCCCCCCCC)n1 [Compound S12S16D5] | 0.1% | 0.1% |
